Reference: US5086053A, “Derivatives of 1,3,4-thiadiazole, a method of obtaining them and pharmaceutical compositions containing them” (Sanofi, priority 1988, dated 1992)
Counter-ions that a name gives are not always drawn. Like-named read-outs stand apart in the source and are kept apart here.

Legend:
[1] = system: M1 central muscarinic cholinergic receptors; assay: Antagonism to rotatory behaviour induced by intrastriatal injection of pirenzepine in the mouse; assay type: in vivo, mouse (female, Swiss, CD 1); details: for change in vivo at 3 mg/kg: Mus musculus, po, read-out: % inhibition of pirenzepine-induced rotations
Procedure: Intrastriatal injection of PZ into the mouse induces rotatory behaviour. Antagonism to this behaviour by the products according to the invention was studied.
The products according to the invention were administered in doses of 0.3 or 3 mg/kg orally after being solubilized in distilled water or suspended in a 5% solution of gum arabic. The controls were given pure solvent under the same conditions.
The animals used were female mice (Swiss, CD 1, Charles River, France), body weight between 25 and 30 grams.
Pirenzepine was dissolved in a phosphate buffer, the pH of the solution being 6.
The products under study or solvents thereof were orally administered, using a probang, in a volume of 0.4 ml per 20 g body weight.
The number of contralateral rotations (in the opposite direction to the side of the injection) was counted for three 2-minute periods after injection of pirenzepine (minutes 2-4, 8-10 and 13-15) and was then totalled for each animal. Each treatment comprised three to four doses and ten animals per dose. For each treatment, the total number of rotations and the percentage inhibition relative to the control batch (solvent) was calculated.

[2] = biological target: T1, type M1 muscarinic cholinergic receptor (Rattus norvegicus, UniProt P08482); assay: biochemical; assay type: binding; details: for ratio R between the IC50 for receptors M1 and M2 (selectivity): values correspond to IC50 3H-NMS (M2) / IC50 3H-PZ (M1)
T1 sequence (P08482 1-460): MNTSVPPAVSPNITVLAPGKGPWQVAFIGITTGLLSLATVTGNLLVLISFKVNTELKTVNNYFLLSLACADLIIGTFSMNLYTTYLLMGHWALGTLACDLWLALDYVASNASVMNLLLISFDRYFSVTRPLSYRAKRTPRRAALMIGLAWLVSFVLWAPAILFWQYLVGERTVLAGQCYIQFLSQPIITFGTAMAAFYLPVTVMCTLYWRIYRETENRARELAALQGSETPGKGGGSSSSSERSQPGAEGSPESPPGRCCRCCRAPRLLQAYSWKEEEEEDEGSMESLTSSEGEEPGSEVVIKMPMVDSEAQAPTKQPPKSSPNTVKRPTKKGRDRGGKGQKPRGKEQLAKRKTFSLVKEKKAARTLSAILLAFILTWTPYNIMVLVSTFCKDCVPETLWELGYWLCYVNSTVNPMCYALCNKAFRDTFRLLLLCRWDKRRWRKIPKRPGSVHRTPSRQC
Procedure: a) Search for an affinity for the type M1 muscarinic cholinergic receptor
The interaction of molecules with type M1 muscarinic receptors was studied in vitro on homogenized rat hippocampus, by studying the displacement of tritiated pirenzepine form its specific tagging sites. 10 μl portions of homogenized rat hippocampus (5% w/v) in an Na2 HPO4 buffer (50 mM, pH 7.40) were incubated at 4° C. for 2 hours in the presence of ^3 H--Pz (76 Ci/mmol/l nM final), with increasing concentrations of the product under study. The final volume was 2 ml. The reaction was stopped by centrifuging for 10 minutes at 50 000 g. After decantation and washing of the bottoms, the tagged radioactivity was counted by liquid scintillation. Non-specific tagging was determined in the presence of 10 μM of atropine sulphate. The 50 inhibiting concentration (IC50) was determined graphically.

[3] = biological target: T2, type M2 muscarinic cholinergic receptor (Cavia porcellus, UniProt H0VRN8); assay: Affinity for type M2 muscarinic cholinergic receptor: displacement of tritiated N-methylscopolamine (3H-NMS) on homogenized smooth muscle of guinea-pig ileum; assay type: binding; details: displacement of 3H-NMS, 30° C., 20 minutes
T2 construct: studies in vitro on homogenized smooth muscle of guinea-pig ileum; from tissue; host or cells: guinea-pig ileum smooth muscle homogenate
T2 sequence (H0VRN8 1-466): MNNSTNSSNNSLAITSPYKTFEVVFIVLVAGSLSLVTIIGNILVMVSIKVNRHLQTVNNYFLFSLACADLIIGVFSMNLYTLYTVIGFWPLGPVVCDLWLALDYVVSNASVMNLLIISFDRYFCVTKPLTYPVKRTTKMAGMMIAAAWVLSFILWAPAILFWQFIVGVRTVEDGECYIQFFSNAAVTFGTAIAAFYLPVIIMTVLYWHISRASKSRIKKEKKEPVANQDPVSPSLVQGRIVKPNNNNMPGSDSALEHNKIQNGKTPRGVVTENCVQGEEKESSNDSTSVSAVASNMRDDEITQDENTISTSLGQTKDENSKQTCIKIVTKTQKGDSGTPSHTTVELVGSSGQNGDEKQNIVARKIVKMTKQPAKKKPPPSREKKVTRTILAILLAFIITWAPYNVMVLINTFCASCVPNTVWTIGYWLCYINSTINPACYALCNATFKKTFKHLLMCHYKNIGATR
Description: BIOCHEMICAL STUDY IN VITRO
M1 type receptors are concentrated in certain zones of the brain such as the hippocampus, the cerebral cortex, the corpus striatum and the sympathetic ganglia. These connection sites can be selectively tagged with tritiated pirenzepine (^3 H--PZ). Type M2 receptors predominate in the heart and the ileum and can be tagged with tritiated N-methylscopolamine (^3 H--NMS). In order to determine the selectivity of the products according to the invention, with regard to sites M1 and M2, a study was made of their interaction in vitro, with high-affinity tagging with ^3 H--PZ and ^3 H--NMS, on rat hippocampus membranes and smooth muscle from guinea-pig ileum respectively.
b) Search for an affinity for the type M2 muscarinic cholinergic receptor
Interaction with type M2 muscarinic receptors was studies in vitro on homogenized smooth muscle of guinea-pig ileum by measuring the displacement of tritiated N-methyl-scopolamine from its specific tagging sites. 50 μl portions of homogenized smooth muscle form guinea-pig ileum (0.625% w/v) in 20 mM of HEPES buffer: 2-((2-hydroxy 4-ethyl) piperazin-1-yl) ethanesulphonic acid containing NaCl (100 mM) and Mg Cl2 (10 mM) (final pH=7.5) were incubated at 30° C. for 20 minutes int eh presence of ^3 H--NMS (85 Ci/mmol/0.3 nM final) with increasing concentrations of the products under test. The final volume was 1 ml. The reaction was stopped by centrifuging for 5 minutes at 15000 g. Non-specific tagging was determined in the presence of […] of atropine sulphate.
The results are expressed as 50% inhibiting concentrations (IC50), i.e. the concentration (in μM) which induces a 50% displacement of the tritiated ligand fixed to the membrane receptors. The IC50 displacement of ^3 H--PZ represents affinity for the M1 receptor, and
The IC50 displacement of ^3 H--NMS represents affinity for the M2 receptor.

[4] = Acute oral toxicity in mice; design: species or system Swiss, CD 1); details: mouse, in vivo, female mice, 24 hours after administration, read-out: 50% lethal dose (DL50)
Procedure: The acute toxicity was determined for one product according to the invention: SR 45341 A. The product was orally administered in increasing doses to a batch of 10 female mice (Swiss, CD 1, Charles River, France), body weight 20 g.
The death rate caused by the product under study was noted during the 24 hours after administration of the product. The 50% lethal dose (DL50) was determined, i.e. the dose which killed 50% of the animals.

[5] = 3 mg/kg p.o., 4 hours before pirenzepine 1 μg intrastriatal, *p<0.05, **p<0.01 Student's test
[6] = displacement of 3H-PZ, rat hippocampus homogenate, 4° C., 2 hours, read-out: IC50 3H-PZ (M1)

IC50 [2, 6] | ratio R between the IC50 for receptors M1 and M2 (selectivity) [2] | IC50 [3] | SMILES | change in vivo at 3 mg/kg [1, 5] | further results
 |  |  | c1ccc(-c2nnc(NCCN3CCOCC3)s2)cc1 [A, reference compound] | -8% | 
 |  |  | FC(F)(F)c1cccc(-c2nnc(NCCN3CCOCC3)s2)c1 [B, reference compound] |  | % inhibition of pirenzepine-induced rotations ([1]; 0,3 mg/kg p.o., 4 hours before pirenzepine 1 μg intrastriatal, *p<0.05, **p<0.01 Student's test): Inactive; % inhibition of pirenzepine-induced rotations [1, 5]: Inactive
 |  |  | CN(C)CCNc1nnc(-c2ccccc2)s1 [C, reference compound] | -12% | 
3 µM | > 30 | > 100 µM | CN(C)CCCNc1nnc(-c2ccccc2)s1 [SR 44824 A] | -27% | 
 |  | 80 µM | CNC1CCN(c2nnc(-c3ccccc3)s2)CC1 [SR 44825 A, 2-(4-methylaminopiperidino)-5-phenyl-1,3,4-thiadiazole dihydrochloride] |  | 
 |  |  | CN1CCC(N(C)c2nnc(-c3ccccc3)s2)CC1 [SR 44828 A, Dihydrochloride and hydrate of 2-[N-methyl N-(1-methyl 4-piperidyl)amino-5-phenyl-1,3,4-thiadiazole] |  | IC50 [2]: 9 µM; change in vivo at 3 mg/kg ([1]; 4 h): -26%
5 µM | 7 | 34 µM | CCN(CC)CCCCNc1nnc(-c2ccccc2)s1 [SR 45339 A, Dihydrochloride of 2-(4-diethylaminobutylamino)-5-phenyl-1,3,4-thiadiazole] | -77% | 
3.5 µM | 6 | 27 µM | Cc1cc(C)c(-c2nnc(NCCCN(C)C)s2)c(C)c1Br [SR 45340 A] | -95% | 
5.5 µM | 5 | 30 µM | CCN(CC)CCCNc1nnc(-c2c(C)cc(C)cc2C)s1 [SR 45352 A] | -32% | 
 |  |  | Cc1cc(C)c(-c2nnc(NCc3cccnc3)s2)c(C)c1 [SR 45417 A] | -43% | 
 |  |  | CN(C)CCCNc1nnc(-c2ccc(F)cc2)s1 [SR 45421 A] | -38% | 
0.7 µM | 37 | 26 µM | CN(C)CCCNc1nnc(-c2ccc(Cl)cc2Cl)s1 [SR 45422 A] | -50% | 
 |  |  | Fc1ccc(-c2nnc(NCc3cccnc3)s2)cc1 [SR 45447 A] | -62% | 
0.8 µM | 15 | 12 µM | Clc1ccc(-c2nnc(NCCCN3CCCC3)s2)c(Cl)c1 [SR 45458 A] | -28% | 
 |  |  | Clc1ccc(-c2nnc(NCc3cccnc3)s2)c(Cl)c1 [SR 45459 A] | -29% | 
14 µM | 5 | 70 µM | CNCCCNc1nnc(-c2ccc(Cl)cc2Cl)s1 [SR 45479 A] |  | 
4.5 µM | 11 | 50 µM | CN(C)CCCNc1nnc(-c2ccc(Cl)cc2)s1 [SR 45480 A] | -54% | 
 |  |  | CCN(CC)CCCNc1nnc(-c2ccc(Cl)cc2Cl)s1 [SR 45481 A] | -67% | 
 |  |  | Fc1ccc(-c2nnc(NCc3ccncc3)s2)cc1 [SR 45482 A] | -53% | 
2.4 µM | 8 | 20 µM | CCN(CCCN(C)C)c1nnc(-c2ccc(F)cc2)s1 [SR 45483 A] | -20% | 
 |  |  | Clc1ccc(-c2nnc(NCc3cccnc3)s2)cc1 [SR 45488 A] | -49% | 
3.6 µM | 7 | 26 µM | CN1CCN(CCCNc2nnc(-c3ccc(Cl)cc3)s2)CC1 [SR 45489 A] | -29% | 
 |  |  | CN1CCCC1CCNc1nnc(-c2ccc(Cl)cc2Cl)s1 (centres unmarked) [SR 45490 A] | -73% | 
 |  |  | CN1CCCC(CNc2nnc(-c3ccc(Cl)cc3)s2)C1 (centres unmarked) [SR 45491 A, 2-[(N-methyl 3-piperidyl)methylamino]-5-(4-chlorophenyl)-1,3,4-thiadiazoledihydrochloride] | -57% | 
 |  |  | Clc1ccc(-c2nnc(NCCc3ccccn3)s2)c(Cl)c1 [SR 45492 A] | -50% | 
3 µM | 13 | 40 µM | Clc1ccc(-c2nnc(NCCCn3ccnc3)s2)c(Cl)c1 [SR 45504 A] |  | 
4.5 µM | 17 | 80 µM | Clc1ccc(-c2nnc(NCCCN3CCOCC3)s2)cc1 [SR 45520 A] | -75% | 
 |  |  | CN(Cc1cccnc1)c1nnc(-c2ccc(F)cc2)s1 [SR 45530 A] | -41% | 
 |  |  | Clc1ccc(-c2nnc(NCCCn3ccnc3)s2)c(Cl)c1 [SR - A] | -60% | 

SMILES | IC50 [2, 6] | ratio R between the IC50 for receptors M1 and M2 (selectivity) [2] | IC50 [3] | change in vivo at 3 mg/kg [1, 5] | further results
Cc1cc(C)c(-c2nnc(NCCCN(C)C)s2)c(C)c1.Cl.Cl [SR 45341 A, 2-(3-dimethylaminopropylamino)-5-(2,4,6-trimethylphenyl)-1,3,4 thiadiazole dihydrochloride] | 0.45 µM | 160 | 72 µM | -74% | LD50 at 24 h [4]: > 300 mg/kg
CNCCCNc1nnc(-c2c(C)cc(C)cc2C)s1.Cl.Cl [SR 45418 A, 2-(3-methylaminopropylamino) 5-(2,4,6-trimethylphenyl) 1,3,4-thiadiazole dihydrochloride] | 20 µM | > 5 | > 100 µM | -77% | 
